According to patent publication US20090062401A1, “DECALINE-DERIVED COMPOUNDS AS […] ACTIVE AGENTS” (UNIVERSITAT DORTMUND, priority 2004, published 2009):
pIC50: −log10 of the molar value.

Key:
VHR = VHR (Homo sapiens, UniProt P51452); assay: VHR phosphatase inhibition, general phosphatase assay using para-nitrophenylphosphate; assay type: biochemical; settings: read-out: IC50 Target VHR
Excerpt: (§1) Assays protocols for the other enzymes mentioned herein (MtPTPA, PP1, VHR, PTP1B) are disclosed in Schweizer R A S, Atanasov, G A, Frey B M, and Odermatt A, Mol. Cell. Endocrinol. 2003, 212, 41-49 and Barratte, B., Meijer L., Galaktionov K. & Beach D, Anticancer Res. 1992, 12, 873-880. For determination of the phosphatase activity, a general phosphatase assay using para-nitrophenylphosphate was applied.

11beta-HSD1 = 11beta-HSD1 (Homo sapiens, UniProt P28845); assay: biochemical; settings: read-out: IC50 Target 11beta-HSD1
Excerpt: (§2) Assay protocols for Cdc25A, 11βHSD1, 11βHSD2, and AChE are described in detain in the publication of Koch M A, Wittenberg L O, Basu S, Jeyaraj D A, Gourzoulidou E, Reinecke K, Odermatt A, Waldmann H (Proc. Natl. Acad. Sci. U.S.A. 2004 Nov. 30; 101(48):16721-6) and in Koch M A et al., Proc. Natl. Acad. Sci. U.S.A. 2005 Nov. 29; 102 (48):17272-7.

Cdc25A = biological target: T1, Cdc25A (Homo sapiens, UniProt P30304); assay: Cdc25A phosphatase inhibition; assay type: biochemical; settings: read-out: IC50 Target Cdc25A
T1 sequence (P30304 1-524): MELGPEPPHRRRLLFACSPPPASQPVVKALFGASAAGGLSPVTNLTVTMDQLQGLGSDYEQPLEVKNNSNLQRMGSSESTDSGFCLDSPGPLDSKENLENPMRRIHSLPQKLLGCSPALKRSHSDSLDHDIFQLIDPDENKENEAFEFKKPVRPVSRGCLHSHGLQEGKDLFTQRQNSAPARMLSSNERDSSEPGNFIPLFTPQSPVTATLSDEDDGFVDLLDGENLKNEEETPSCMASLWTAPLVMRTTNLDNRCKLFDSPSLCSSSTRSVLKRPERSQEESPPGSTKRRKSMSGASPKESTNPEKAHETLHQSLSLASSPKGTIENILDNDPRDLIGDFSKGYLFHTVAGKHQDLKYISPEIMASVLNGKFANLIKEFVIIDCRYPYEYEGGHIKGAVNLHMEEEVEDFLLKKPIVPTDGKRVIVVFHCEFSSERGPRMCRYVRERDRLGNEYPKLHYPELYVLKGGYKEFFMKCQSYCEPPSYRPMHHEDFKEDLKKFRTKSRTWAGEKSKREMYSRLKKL
Excerpt: as §2

PTP1B = biological target: T2, PTP1B (Homo sapiens, UniProt P18031); assay: PTP1B phosphatase inhibition, general phosphatase assay using para-nitrophenylphosphate; assay type: biochemical; settings: read-out: IC50 Target PTP1B
T2 sequence (P18031 1-435): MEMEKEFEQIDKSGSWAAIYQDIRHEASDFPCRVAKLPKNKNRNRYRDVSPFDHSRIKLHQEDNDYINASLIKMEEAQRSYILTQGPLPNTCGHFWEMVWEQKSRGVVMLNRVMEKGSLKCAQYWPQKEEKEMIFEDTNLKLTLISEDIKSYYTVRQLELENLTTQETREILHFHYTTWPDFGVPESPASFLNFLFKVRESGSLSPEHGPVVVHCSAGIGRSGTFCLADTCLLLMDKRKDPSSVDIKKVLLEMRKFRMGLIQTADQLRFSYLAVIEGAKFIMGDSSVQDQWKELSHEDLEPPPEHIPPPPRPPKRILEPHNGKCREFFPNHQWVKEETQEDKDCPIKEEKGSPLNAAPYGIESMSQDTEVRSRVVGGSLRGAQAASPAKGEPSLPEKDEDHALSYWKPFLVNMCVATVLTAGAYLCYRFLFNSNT
Excerpt: as §1

MPTPA = MPTPA (Mycobacterium tuberculosis, UniProt P9WIA1); assay: MtPTPA phosphatase inhibition, general phosphatase assay using para-nitrophenylphosphate; assay type: biochemical; settings: read-out: IC50 Target MPTPA
Excerpt: as §1

Chain of VHR (P51452 whole entry, species assumed): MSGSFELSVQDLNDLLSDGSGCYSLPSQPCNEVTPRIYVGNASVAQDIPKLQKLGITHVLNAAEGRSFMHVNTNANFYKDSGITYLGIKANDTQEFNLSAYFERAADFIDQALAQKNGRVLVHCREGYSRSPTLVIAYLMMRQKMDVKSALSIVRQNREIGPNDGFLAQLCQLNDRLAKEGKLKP
Chain of MPTPA (P9WIA1 whole entry): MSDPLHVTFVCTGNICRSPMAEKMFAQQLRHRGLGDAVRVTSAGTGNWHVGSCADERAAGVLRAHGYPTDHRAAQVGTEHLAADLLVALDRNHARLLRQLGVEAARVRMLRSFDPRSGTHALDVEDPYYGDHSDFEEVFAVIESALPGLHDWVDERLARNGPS
Chain of 11beta-HSD1 (P28845 whole entry): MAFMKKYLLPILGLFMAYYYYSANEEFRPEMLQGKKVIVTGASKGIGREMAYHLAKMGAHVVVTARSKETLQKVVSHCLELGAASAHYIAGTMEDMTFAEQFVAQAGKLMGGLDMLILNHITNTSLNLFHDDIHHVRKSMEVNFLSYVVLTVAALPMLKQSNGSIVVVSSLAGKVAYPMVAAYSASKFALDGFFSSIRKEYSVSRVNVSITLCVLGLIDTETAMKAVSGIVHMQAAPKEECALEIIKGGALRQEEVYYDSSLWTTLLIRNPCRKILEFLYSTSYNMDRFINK

| SMILES | pIC50 (VHR) | pIC50 (11beta-HSD1) | pIC50 (Cdc25A) | pIC50 (PTP1B) | pIC50 (MPTPA) |
| --- | --- | --- | --- | --- | --- |
| CC1=C2CCC[C@H](O)[C@@]2(C)C/C(=C\c2ccc(F)c(F)c2)C1=O [Compound 1, (3E,4aS,5S)-3-(3,4-Difluorbenzyliden)-4,4a,5,6,7,8-hexahydro-5-hydroxy-1,4a-dimethyl-naphthalen-2(3H)-one] | 4.30 to 5.00 | > 5.00 |  |  |  |
| CC1=C2CCC[C@H](O)[C@@]2(C)C/C(=C\c2cccnc2)C1=O [Compound 10, (3E,4aS,5S)-4,4a,5,6,7,8-Hexahydro-5-hydroxy-1,4a-dimethyl-3-[(pyridin-3-yl)methylen]naphthalen-2(3H)-one] |  | > 5.00 |  |  |  |
| CSc1ccc(/C=C2\C[C@@]3(C)C(=C(C)C2=O)CCC[C@@H]3O)cc1 [Compound 11, (3E,4aS,5S)-3-[4-(Methylthio)benzyliden]-4,4a,5,6,7,8-hexahydro-5-hydroxy-1,4a-dimethylnaphthalen-2(3H)-one] |  | > 5.00 |  |  |  |
| COc1ccc(/C=C2\C[C@@]3(C)C(=C(C)C2=O)CCC[C@@H]3O)c(O)c1 [Compound 14, (3E,4aS,5S)-3-(2-Hydroxy-4-methoxybenzyliden)-4,4a,5,6,7,8-hexahydro-5-hydroxy-1,4a-dimethylnaphthalen-2(3H)-one] |  | > 5.00 |  |  |  |
| CCCCCCCCCCC/C=C1\C[C@@]2(C)C(=C(C)C1=O)CCC[C@@H]2O [Compound 22, (3E,4aS,5S)-3-Dodecyliden-4,4a,5,6,7,8-hexahydro-5-hydroxy-1,4a-dimethylnaphthalen-2(3H)-one] |  | > 5.00 |  |  |  |
| CCc1ccc(/C=C2\C[C@@]3(C)C(=C(C)C2=O)CCC[C@@H]3O)c(C)c1 [Compound 23, (3E,4aS,5S)-3-(4-Ethyl-2-methylbenzyliden)-4,4a,5,6,7,8-hexahydro-5-hydroxy-1,4a-dimethylnaphthalen-2(3H)-one] |  | > 5.00 |  |  |  |
| CCCCC#Cc1ccc(/C=C2\C[C@@]3(C)C(=C(C)C2=O)CCC[C@@H]3O)cc1 [Compound 40, (3E,4aS,5S)-3-[4-(Hex-1-inyl)benzyliden]-4,4a,5,6,7,8-hexahydro-5-hydroxy-1,4a-dimethyl-naphthalen-2(3H)-one] | 4.30 to 5.00 |  | 4.30 to 5.00 | 4.30 to 5.00 |  |
| CC1=C2CCC[C@H](O)[C@@]2(C)C/C(=C\c2ccc(C#CC(C)(C)O)cc2)C1=O [Compound 44, (3E,4aS,5S)-3-[4-(3-Hydroxy-3-methylbut-1-inyl)benzyliden]-4,4a,5,6,7,8-hexahydro-5-hydroxy-1,4a-dimethyl-naphthalen-2(3H)-one] | 4.30 to 5.00 |  | 4.30 to 5.00 | 4.30 to 5.00 |  |
| CCOC(C#Cc1ccc(/C=C2\C[C@@]3(C)C(=C(C)C2=O)CCC[C@@H]3O)cc1)OCC [Compound 46, (3E,4aS,5S)-3-[4-(3,3-Diethoxyprop-1-inyl)benzyliden]-4,4a,5,6,7,8-hexahydro-5-hydroxy-1,4a-dimethylnaphthalen-2(3H)-on] | 4.30 to 5.00 |  | > 5.00 | 4.30 to 5.00 |  |
| CC1=C2CCC[C@H](O)[C@@]2(C)C/C(=C\c2ccc(C#CCN(C)C)cc2)C1=O [Compound 51, (3E,4aS,5S)-3-{4-[3-(Dimethylamino)prop-1-inyl]benzyliden}-4,4a,5,6,7,8-hexahydro-5-hydroxy-1,4a-dimethylnaphthalen-2(3H)-one] | 4.30 to 5.00 |  | > 5.00 | 4.30 to 5.00 |  |
| CC1=C2CCC[C@H](O)[C@@]2(C)C/C(=C\C=C\c2ccco2)C1=O [Compound 60, (3E,4aS,5S)-3-[(E)-3-(Furan-2-yl)allyliden]-4,4a,5,6,7,8-hexahydro-5-hydroxy-1,4a-dimethylnaphthalen-2(3H)-one] | 4.30 to 5.00 |  | 4.30 to 5.00 | 4.30 to 5.00 |  |
| CC1=C2CCC[C@H](O)[C@@]2(C)C/C(=C\c2ccc(Br)cc2)C1=O [Compound 65, (3E,4aS,5S)-3-(4-Brombenzyliden)-4,4a,5,6,7,8-hexahydro-5-hydroxy-1,4a-dimethylnaphthalen-2(3H)-one] |  | 4.30 to 5.00 |  |  |  |
| CC1=C2CCC[C@H](O)[C@@]2(C)C/C(=C\c2ccc(C#CC3CCCCC3)cc2)C1=O [Compound 73, (3E,4aS,5S)-3-[4-(2-Cyclohexyl-ethinyl)benzyliden]-4,4a,5,6,7,8-hexahydro-5-hydroxy-1,4a-dimethylnaphthalen-2(3H)-one] |  | > 5.00 |  |  |  |
| C=C1C(C)=C2CCC[C@H](O)[C@@]2(C)C/C1=C\c1ccccc1 [Compound 97, (1S,7E,8aS)-7-Benzyliden-1,2,3,4,6,7,8,8a-octahydro-5,8a-dimethyl-6-methylennaphthalen-1-ol] |  | > 5.00 |  |  |  |
| C=C1C(C)=C2CCC[C@H](O)[C@@]2(C)C/C1=C\CCCC [Compound 98, (1S,7E,8aS)-1,2,3,4,6,7,8,8a-Octahydro-5,8a-dimethyl-6-methylen-7-pentylidennaphthalen-1-ol] |  | > 5.00 |  |  |  |
| CCCCCCC#Cc1ccc(/C=C2\C[C@@]3(C)C(CCC[C@@H]3O)C(C)C2=O)cc1 (stereo partly drawn) [Compound 125, (E,4aS,5S)-3-[4-(Oct-1-inyl)-benzyliden]-octahydro-5-hydroxy-1,4a-dimethylnaphthalen-2(1H)-one] | 4.30 to 5.00 |  |  |  | 4.30 to 5.00 |
| CCCCCCCCCCCCCCC#Cc1ccc(/C=C2\C[C@@]3(C)C(CCC[C@@H]3O)C(C)C2=O)cc1 (stereo partly drawn) [Compound 127, (E,4aS,5S)-3-[4-(Hexadec-1-inyl)benzyliden]-octahydro-5-hydroxy-1,4a-dimethylnaphthalen-2(1H)-one] | 4.30 to 5.00 |  |  |  | 4.30 to 5.00 |
| CCCCCCCCCCCCCCC#Cc1ccc(/C=C2\C[C@@]3(Cc4ccccc4)C(=C(C)C2=O)CCC[C@@H]3O)cc1 [Compound 128, (3E,4aS,5S)-3-[4-(Hexadec-1-inyl)benzyliden]-4a-benzyl-4,4a,5,6,7,8-hexahydro-5-hydroxy-1-methylnaphthalen-2(3H)-one] | 4.30 to 5.00 |  |  |  | 4.30 to 5.00 |
| CCN(CC)C1CC[C@@]2(C)C(=C1C)CCC[C@@H]2O (stereo partly drawn) [Compound 388, (1S,8aS)-6-(Diethylamino)-1,2,3,4,6,7,8,8a-octahydro-5,8a-dimethylnaphthalen-1-ol] |  |  |  |  | 4.30 to 5.00 |
| CC1C=CCC2CCC(=Cc3ccco3)C(=O)C12 (stereo not shown) [Compound 394, 2-Furan-2-ylmethylene-8-methyl-3,4,4a,5,8,8a-hexahydro-2H-naphthalen-1-one] | 4.30 to 5.00 |  | 4.30 to 5.00 | > 5.00 |  |
| CC1(Cc2cccc(I)c2)C(=O)CC[C@@]2(C)C1CCC[C@@H]2O (stereo partly drawn) [Compound 398, (4aS,5S)-5-Hydroxy-1-(3-iodo-benzyl)-1,4a-dimethyl-octahydro-naphthalen-2-one] | 4.30 to 5.00 |  | 4.30 to 5.00 | 4.30 to 5.00 |  |
| CC1=C2CCC[C@H](O)[C@@]2(C)CC(=Cc2ccc(NC3CCCCC3)cc2)C1=O [Compound 399, (4aS,5S)-3-(4-Cyclohexylamino-benzylidene)-5-hydroxy-1,4a-dimethyl-4,4a,5,6,7,8-hexahydro-3H-naphthalen-2-one] |  | > 5.00 |  |  |  |
| CC1C=CCC2CCCC(=O)C12 (stereo not shown) [Compound 407, 8-Methyl-3,4,4a,5,8,8a-hexahydro-2H-naphthalen-1-one] |  | > 5.00 |  |  |  |
| CC1(Cc2cc(Br)cc(Br)c2)C(=O)/C(=C/c2ccc(I)cc2)CC2(C)C1CCCC21OCCO1 (stereo not shown) [Compound 416, (7′E)-5′-(3,5-Dibromobenzyl)-7′-(4-iodo-benzylidene)-5′,8a′-dimethylhexahydro-2′H-spiro[1,3-dioxolane-2,1′-naphthalen]-6′(5′H)-one] |  | > 5.00 |  | 4.30 to 5.00 |  |
